According to PubChem BioAssay (NCI):
Values joined by “and” are separate entries in the source; they are usually repeats but may differ in a detail not shown here. Equal values may be shown once.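 Assay format: 96-well plates, 48-hour exposure. Here, GI50 denotes the concentration required for 50% inhibition of growth. TGI marks complete inhibition of growth.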

Test system: MDA-MB-468 breast
Experiment: NCI anticancer screen, dose series, 48 h

| Compound | GI50 | TGI [nM] |
| --- | --- | --- |
| COC(=O)Nc1nc2ccc(Sc3ccc(NC(=O)Nc4cc(C(F)(F)F)ccc4F)cc3)cc2[nH]1 | 882 nM | 4750 |
| COc1cc(OC)cc(N2CCN(C(=O)Nc3nc4cc(F)ccc4nc3OC)CC2)c1 | 28.3 nM | 65100 |
| Cc1csc(Nc2nc(-c3cccc(Cl)c3)nc(C(Cl)(Cl)Cl)n2)n1 | 728 nM | 2180 |
| COc1cc(OC)c(/C=C/S(=O)(=O)Cc2ccc(OC)c(NCC(=O)O)c2)c(OC)c1 | 121 nM and 187 nM | > 100000 |
| Cc1cc(N)c2ccccc2[n+]1CCCCCCCCCC[n+]1c(C)cc(N)c2ccccc21 | 64.7 nM | 245 |
| COc1cc(C(=O)N/N=C/c2cccc([N+](=O)[O-])c2)cc(OC)c1OC | 2770 nM | 14000 |
| CC(=O)N[C@@H]1CCC[C@H](C(=O)Nc2cc(-c3cnn4c3CC(C)(C)C4)c(Cl)cn2)C1 | < 10 nM | 49 |
| CC(C)n1nc(C#Cc2cccc(NC(=O)c3cccc(C(F)(F)F)c3)c2)c2c(N)ncnc21 | 4540 nM | 28400 |
| Cn1cc(-c2nn3cc(-c4cccs4)nc3s2)c2cc(F)ccc21 | 1440 nM | 5470 |
| CC(C)(C)c1ccc(S(=O)(=O)N[C@H]2CC[C@H]3[C@@H]4CCc5cc(O)ccc5[C@H]4CC[C@]23C)cc1 | 2740 nM | 9600 |
| C[C@]12CC[C@@H]3c4ccc(O)cc4CC[C@H]3[C@@H]1CC[C@@H]2NS(=O)(=O)c1ccc(-c2ccccc2)cc1 | 2960 nM | 38800 |
| CC(=O)Nc1ccc(-n2cnc3cc(-c4ccc(OCCN5CCCCC5)cc4)ccc32)cc1 | 5640 nM | 14100 |
| C#Cc1nc(C2=C(C)C(O)/C(=N/O)C2)cs1 (stereo not drawn) | 17600 nM | > 100000 |
| O=[N+]([O-])c1cccc(-c2ncc(-c3ccc(Cl)cc3Cl)[nH]2)c1 | 1630 nM | 3540 |
| COc1ncnc2c(-c3ccco3)cn(COCc3ccccc3)c12 | 2400 nM | > 50000 |
| CCNC(=O)Oc1ccc(/C(=C(\C)c2ccc(Cl)cc2)c2ccc(OCCN3CCCCC3)cc2)cc1 | 2660 nM | 9500 |
| O=c1[nH]c(-c2ccccn2)nc2sc3c(c12)CCCCCC3 | 1660 nM | > 100000 |
| CCN(CC)CCOc1ccc(C2=C(c3ccccc3)CCc3cc(OC)ccc32)cc1 | 138 nM | 418 |
| C#Cc1cccc(Nc2ncnc3ccc(-c4cncc(NS(C)(=O)=O)c4)cc23)c1 | 208 nM | 731 |
| O=c1c2cc(F)ccc2sc2c(NCCCN3CCCC3)nc3ccccc3c12 | 1170 nM | 2670 |
| C=CC[PH+](c1ccccc1)c1ccccc1.C=CC[PH+](c1ccccc1)c1ccccc1.[Cl][Pt][Cl] | 2640 nM | 7100 |
| C=C(C)[C@@H]1CCC[C@]2(C(=O)O)CC[C@]3(C)[C@@H](CC[C@@H]4[C@@]5(C)C/C(=C/c6ccncc6)C(=O)C(C)(C)[C@@H]5CC[C@]43C)[C@@H]12 | 2100 nM | 5490 |

| Compound | GI50 | TGI [nM] |
| --- | --- | --- |
| CCCCCCN1C(=O)CN=C1Nc1ccc2cc3ccc(NC4=NCC(=O)N4CCCCCC)cc3nc2c1 | 1640 nM | 3400 |
| CCCCCCN(CCCCCC)CC(O)c1cccc2ccc(Cl)cc12 (stereo not drawn) | 3190 nM | 14600 |
| COc1ccc(S(=O)(=O)NCCNc2nccc(-c3c(-c4ccccc4)nc4sccn34)n2)cc1 | 3030 nM | > 100000 |
| Cc1cnc2[nH]c(-c3ccccc3)cc(=O)c2c1 | 24600 nM | > 100000 |
| N#Cc1ccc(N2Cc3cc(Cl)ccc3OC3=C2C(=O)N(Cc2ccccc2)C3=O)cc1 | 1220 nM | 3260 |
| COc1cc(/C=C\c2cccnc2Nc2ccccc2)cc(OC)c1OC | 6770 nM | 48700 |
| CCCCCCCCCCCCNC(=O)[C@H]1CSC(c2ccc(OC)c(F)c2)N1 (stereo partly drawn) | 1280 nM | 2820 |
| Cc1ccc(OCCCCCCNCCO)c(C)c1 | 8480 nM | 23600 |
| COc1ccc(N=C2NN=C(c3c[nH]c4ccccc34)CS2)cc1OC | 14600 nM | > 60500 |
| C#Cc1ccc(-n2c(/C=C/c3cc(OC)c(OC)c(OC)c3)nc3ncccc3c2=O)cc1 | 2830 nM | > 100000 |
| O=C(Nc1ccccc1)Nc1ccccc1CNc1nc(Nc2ccc(OCCN3CCCC3)cc2)ncc1Cl | 1960 nM | 9400 |
| COc1ccc(N(Cc2cc(OC)c(OC)c(OC)c2)C2OC(=O)c3ccccc32)cc1 (stereo not drawn) | 328 nM | > 100000 |
| COc1ccc(-n2nc(C)c3c2N(C)C2(C)C[C@@H]4C3(C)[C@@H]3CC4(C2)N(C)c2c(c(C)nn2-c2ccc(OC)cc2)[C@H]3C)cc1 (stereo partly drawn) | 4760 nM | 64800 |
| CCCCCCCCCCCCCCCCCC1=NC(C)(C)CN1CCO | 1590 nM | 3040 |
| C[C@H](NC(=O)CCC(F)(F)F)C(=O)N[C@@H]1C(=O)N(CCO)c2ncccc2-c2ccccc21 | > 100000 nM | > 100000 |
| CN(C)c1ccc(Sc2ccc3nc(N)nc(N)c3c2)cc1 | 909 nM | 2650 |
| CC(C)C[C@H](NC(=O)[C@@H](O)[C@H](N)Cc1ccccc1)C(=O)O | 53400 nM | > 100000 |
| CC1(C)CC2(C)OC2C2(C1)N=NC(=Nc1ccccc1)O2 (stereo not drawn) | 2470 nM | 7280 |
| CC(C)(C)c1cc(C(=O)Nc2cc3ccccc3cc2C(=O)NCCN)cc(C(C)(C)C)c1 | 347 nM | 989 |
| CCOc1cccnc1/C=N/NC(N)=S | 2540 nM | 13300 |
| Cn1c(COC(=O)NCCN2CCOCC2)nc2c(N3CCOCC3)nc(-c3ccccc3)nc21 | 1140 nM | 2950 |
| O=c1[nH]c2cc(O)ccc2n2cc3c(F)cccc3c12 | 1360 nM | > 100000 |
